Assay: Chemical stability of drug in the aqueous suspension against autoclaving (recovery rate by HPLC)
Assay type: physicochemical
Experimental: Comparison of Chemical Stability of Drug in the Aqueous Suspension Against Autoclaving
The suspension of Example 1 was put into a 500 mL glass container with a screw cap and sterilized by autoclaving at 121 degrees C. for 20 minutes. Subsequently, after mixing the suspension in the glass container, the ciclesonide concentration was quantified by HPLC.
The recovery rate of ciclesonide after the autoclaving was calculated by taking the ciclesonide concentration before the autoclaving to be 100%. The recovery rates of budesonide and beclomethasone dipropionate after the autoclaving were calculated by the same method.

SMILES	Degradation by autoclaving procedure
CCCC1O[C@@H]2C[C@H]3[C@@H]4CCC5=CC(=O)C=C[C@]5(C)[C@H]4[C@@H](O)C[C@]3(C)[C@]2(C(=O)CO)O1 (stereo partly drawn) [budesonide, 16α,17-[(1RS)-butylidene-bis(oxy)]-11β,21-dihydroxypregna-1,4-diene-3,20-dione]	degraded
CC(C)C(=O)OCC(=O)[C@@]12O[C@H](C3CCCCC3)O[C@@H]1C[C@H]1[C@@H]3CCC4=CC(=O)C=C[C@]4(C)[C@H]3[C@@H](O)C[C@@]12C [ciclesonide, (11β,16α)-16,17-[cyclohexylmethylenebis(oxy)]-11-hydroxy-21-(2-methyl-1-oxopropoxy)pregna-1,4,-diene-3,20-dione]	not degraded

From US20060166953A1, “Ciclesonide-containing sterile aqueous suspension” (priority 2002, published 2006)
